Test results published in patent US20170050957A1, “4-AMINO-6-(HETEROCYCLIC)PICOLINATES AND 6-AMINO-2-(HETEROCYCLIC)PYRIMIDINE-4-CARBOXYLATES AND THEIR USE AS HERBICIDES” (Dow AgroSciences LLC, priority 2013, published 2017).
Where two headings read alike, the source gives them in different places.

Legend:
[1] = test system: Key Broadleaf Weed and Crop Species; experiment: Post-emergent Test II herbicidal activity (Table 15); type: in vivo; details: post-emergence, 336 h, 14 d; for pest or weed control at 35 g/ha: 35 g ai/ha; for pest or weed control at 70 g/ha: 70 g ai/ha; for pest or weed control at 140 g/ha: 140 g ai/ha
Outline: (§1)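 Plants at first-second true leaf stage, grown 7-21 d in greenhouse (~15 h photoperiod, 23-29 °C day), were track-sprayed at 187 L/ha with compound in acetone/DMSO/water/isopropanol/crop oil/Triton X-155 at a high rate plus 1/2× to 1/16× dilutions. Injury scored visually after 14 d versus untreated plants, 0 (none) to 100% (complete kill).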

[2] = test system: Key Grass and Sedge Weeds as well as Grass Crops; experiment: Post-emergent Test II herbicidal activity (Table 16); type: in vivo; details: post-emergence, 336 h, 14 days after application; for pest or weed control at 35 g/ha: 35 g ai/ha; for pest or weed control at 70 g/ha: 70 g ai/ha; for pest or weed control at 140 g/ha: 140 g ai/ha
Outline: as §1

[3] = Abutilon theophrasti, velvetleaf (Abutilon theophrasti), read-out: Visual Growth Reduction (%) 14 Days After Application, ABUTH
[4] = Amaranthus retroflexus, redroot pigweed (Amaranthus retroflexus), read-out: Visual Growth Reduction (%) 14 Days After Application, AMARE
[5] = Brassica napus, oilseed rape, canola (Brassica napus), read-out: Visual Growth Reduction (%) 14 Days After Application, BRSNN
[6] = Chenopodium album, lambsquarters (Chenopodium album), read-out: Visual Growth Reduction (%) 14 Days After Application, CHEAL
[7] = Euphorbia heterophylla, wild poinsettia (Euphorbia heterophylla), read-out: Visual Growth Reduction (%) 14 Days After Application, EPHHL
[8] = Helianthus annuus, sunflower (Helianthus annuus), read-out: Visual Growth Reduction (%) 14 Days After Application, HELAN
[9] = Cyperus esculentus, yellow nutsedge (Cyperus esculentus), read-out: Visual Growth Reduction (%) 14 Days After Application CYPES
[10] = Echinochloa crus-galli, barnyardgrass (Echinochloa crus-galli), read-out: Visual Growth Reduction (%) 14 Days After Application ECHCG
[11] = Oryza sativa, rice (Oryza sativa), read-out: Visual Growth Reduction (%) 14 Days After Application ORYSA
[12] = Setaria faberi, giant foxtail (Setaria faberi), read-out: Visual Growth Reduction (%) 14 Days After Application SETFA
[13] = Triticum aestivum, wheat, spring (Triticum aestivum), read-out: Visual Growth Reduction (%) 14 Days After Application TRZAS
[14] = Zea mays, maize, corn (Zea mays), read-out: Visual Growth Reduction (%) 14 Days After Application ZEAMX

**Q.** COC(=O)c1nc(-c2ccc3ccsc3c2)cc(N)c1Cl [Compound 3.15] was tested. Which pest or weed control at 35 g/ha [1, 3] did it give?
**A.** Its pest or weed control at 35 g/ha is 85 to 94%.

**Q.** What about the pest or weed control at 70 g/ha [1, 3] of the same compound?
**A.** The pest or weed control at 70 g/ha was 95 to 100%.

**Q.** And the pest or weed control at 140 g/ha [1, 3]?
**A.** Its pest or weed control at 140 g/ha is 95 to 100%.

**Q.** And the pest or weed control at 35 g/ha [1, 4]?
**A.** The pest or weed control at 35 g/ha was 95 to 100%.

**Q.** What about the pest or weed control at 70 g/ha [1, 4] of the same compound?
**A.** Its pest or weed control at 70 g/ha is 95 to 100%.

**Q.** What about the pest or weed control at 140 g/ha [1, 4] of the same compound?
**A.** The pest or weed control at 140 g/ha was 95 to 100%.

**Q.** What about the pest or weed control at 35 g/ha [1, 5] of the same compound?
**A.** Its pest or weed control at 35 g/ha is 30 to 44%.

**Q.** What about the pest or weed control at 70 g/ha [1, 5] of the same compound?
**A.** Its pest or weed control at 70 g/ha is 45 to 59%.

**Q.** And the pest or weed control at 140 g/ha [1, 5]?
**A.** The pest or weed control at 140 g/ha was 45 to 59%.

**Q.** What about the pest or weed control at 35 g/ha [1, 6] of the same compound?
**A.** Its pest or weed control at 35 g/ha is 85 to 94%.

**Q.** And the pest or weed control at 70 g/ha [1, 6]?
**A.** The pest or weed control at 70 g/ha was 85 to 94%.

**Q.** And the pest or weed control at 140 g/ha [1, 6]?
**A.** The pest or weed control at 140 g/ha was 95 to 100%.

**Q.** And the pest or weed control at 35 g/ha [1, 7]?
**A.** Its pest or weed control at 35 g/ha is 75 to 84%.

**Q.** What about the pest or weed control at 70 g/ha [1, 7] of the same compound?
**A.** The pest or weed control at 70 g/ha was 75 to 84%.

**Q.** What about the pest or weed control at 140 g/ha [1, 7] of the same compound?
**A.** The pest or weed control at 140 g/ha was 85 to 94%.

**Q.** And the pest or weed control at 35 g/ha [1, 8]?
**A.** Its pest or weed control at 35 g/ha is 60 to 74%.

**Q.** What about the pest or weed control at 70 g/ha [1, 8] of the same compound?
**A.** The pest or weed control at 70 g/ha was 60 to 74%.

**Q.** What about the pest or weed control at 140 g/ha [1, 8] of the same compound?
**A.** The pest or weed control at 140 g/ha was 85 to 94%.

**Q.** And the pest or weed control at 35 g/ha [2, 9]?
**A.** The pest or weed control at 35 g/ha was 0 to 29%.

**Q.** And the pest or weed control at 70 g/ha [2, 9]?
**A.** Its pest or weed control at 70 g/ha is 0 to 29%.

**Q.** And the pest or weed control at 140 g/ha [2, 9]?
**A.** The pest or weed control at 140 g/ha was 0 to 29%.

**Q.** And the pest or weed control at 35 g/ha [2, 10]?
**A.** Its pest or weed control at 35 g/ha is 75 to 84%.

**Q.** And the pest or weed control at 70 g/ha [2, 10]?
**A.** The pest or weed control at 70 g/ha was 75 to 84%.

**Q.** What about the pest or weed control at 140 g/ha [2, 10] of the same compound?
**A.** The pest or weed control at 140 g/ha was 95 to 100%.

**Q.** What about the pest or weed control at 35 g/ha [2, 11] of the same compound?
**A.** The pest or weed control at 35 g/ha was 0 to 29%.

**Q.** And the pest or weed control at 70 g/ha [2, 11]?
**A.** Its pest or weed control at 70 g/ha is 0 to 29%.

**Q.** What about the pest or weed control at 140 g/ha [2, 11] of the same compound?
**A.** The pest or weed control at 140 g/ha was 0 to 29%.

**Q.** What about the pest or weed control at 35 g/ha [2, 12] of the same compound?
**A.** The pest or weed control at 35 g/ha was 0 to 29%.

**Q.** What about the pest or weed control at 70 g/ha [2, 12] of the same compound?
**A.** Its pest or weed control at 70 g/ha is 0 to 29%.

**Q.** What about the pest or weed control at 140 g/ha [2, 12] of the same compound?
**A.** Its pest or weed control at 140 g/ha is 0 to 29%.

**Q.** What about the pest or weed control at 35 g/ha [2, 13] of the same compound?
**A.** The pest or weed control at 35 g/ha was 0 to 29%.

**Q.** And the pest or weed control at 70 g/ha [2, 13]?
**A.** The pest or weed control at 70 g/ha was 0 to 29%.

**Q.** And the pest or weed control at 140 g/ha [2, 13]?
**A.** Its pest or weed control at 140 g/ha is 0 to 29%.

**Q.** And the pest or weed control at 35 g/ha [2, 14]?
**A.** Its pest or weed control at 35 g/ha is 60 to 74%.

**Q.** What about the pest or weed control at 70 g/ha [2, 14] of the same compound?
**A.** Its pest or weed control at 70 g/ha is 60 to 74%.

**Q.** What about the pest or weed control at 140 g/ha [2, 14] of the same compound?
**A.** The pest or weed control at 140 g/ha was 60 to 74%.
